Data taken from paper PMC10824102, “Identification of small molecule inhibitors of G3BP-driven stress granule formation” (The Journal of Cell Biology, 2024).

Target: T1, condensate formation by G3BP1 and RNA (Homo sapiens, UniProt Q13283)
T1 construct: made in house; host or cells: E. coli BL21 (DE3)
Experiment: In vitro LLPS, two-component system (G3BP1 and RNA)
Assay type: biochemical
Conditions: 20 μM G3BP1, 100 ng RNA, up to 166 μM compound
Description: LLPS assays were performed in 30 μl total volume at 25°C at pH 7.4 in buffer containing 37 mM Tris, pH 7.5, 116 mM NaCl, 0.33% NP-40, 2.6% glycerol, 0.5 mM DTT with 20 ng/μl total cellular RNA from U2OS cells and 1.425 μM G3BP1, 0.075 μM FLAG-GFP-G3BP1, and 1.5 μM caprin 1. Reactions were initiated by adding G3BP1/caprin 1 protein mix to cellular RNA, followed by 3 min of shaking at 450 rpm and then incubation for 70 min in the dark. For condensates formed with G3BP1 and RNA, 20 μM purified G3BP1 and 100 ng of total cellular RNA from HEK293T cells were added to a buffer consisting of 100 mM NaCl and 16.7 mM HEPES (pH 7.5) in the presence of the indicated dose of G3Ib or vehicle control.

T1 sequence (Q13283 whole entry): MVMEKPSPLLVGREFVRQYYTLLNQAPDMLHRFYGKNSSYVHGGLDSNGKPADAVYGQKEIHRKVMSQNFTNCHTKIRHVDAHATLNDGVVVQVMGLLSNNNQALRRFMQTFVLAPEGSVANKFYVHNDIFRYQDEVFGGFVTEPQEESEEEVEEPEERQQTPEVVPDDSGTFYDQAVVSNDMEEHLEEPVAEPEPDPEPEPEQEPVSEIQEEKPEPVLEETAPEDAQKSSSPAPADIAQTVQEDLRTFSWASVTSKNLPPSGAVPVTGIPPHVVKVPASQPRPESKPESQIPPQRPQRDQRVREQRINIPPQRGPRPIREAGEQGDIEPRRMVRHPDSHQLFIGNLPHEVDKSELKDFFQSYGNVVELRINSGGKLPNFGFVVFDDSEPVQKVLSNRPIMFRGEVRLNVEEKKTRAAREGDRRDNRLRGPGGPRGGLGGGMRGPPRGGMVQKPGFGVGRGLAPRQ

## CC(NC(=O)C(NC(=O)C(NC(=O)CCC(C)(C)C)C(C)(C)O)C(C)c1ccccc1)C(=O)N1CCCC1c1ccccc1 (stereo not shown) [G3Ib]
  condensate formation by G3BP1 and RNA: unaffected
